These results are taken from patent US20090214607A1, “Topical use of teprenone” (SEDERMA, priority 2005, published 2009).

Assay [1] can be described thus: Lipid peroxidation of liposomes using UVA radiation. It counts as biochemical. The conditions noted are these: UVA induced, vs negative control. The method, then:
(§1) In order to determine the action of teprenone as per the invention, the effect of the active substance on the lipid peroxidation of liposomes was analyzed. The liposomes were used to model cutaneous lipids.
In this method, liposomes are exposed to the test compound and then to UV A radiation. Peroxidation is determined by spectrophotometry at 233 nm.

In the next assay the test system is Hsp27. Nature of the assay: Hsp27 immunolabeling in UVB-irradiated human skin explants. Format: cell-based. Conditions: 0.1 mM. The text has this:
(§2) Heat Schock proteins (Hsp) are cellular protective molecules which contribute to the correct proteinic folding, thus preserving the protein activity. Hsp 27 is a protective chaperone protein very present in the keratinocytes at the basal state. In situation of UV stress, cell increases its rate of protection and Hsp 27 is strongly overexpressed. Hsp70 is a chaperone protein less expressed in a basal state but induced in response to the UV, thermics, mechanics or infectious stress.
(§3) Human skin explants are treated in a similar way to the previous experiment (protection on the catalase activity): taken from a plastic surgery, they are cultivated for 48 h in the presence or not, for control, of teprenone (or trolox) at various concentrations, then irradiated or not using a source UVB (2 J/cm2). After irradiation skin explants were post-treated (24 h) or not with teprenone (or trolox) at the same concentrations.
(§4) Explants were embedded in OCT, sectioned using a freezing microtome, and slide mounted. The mounted specimens were immunolabeled with anti-human Hsp antibody.

In a further assay the test system is catalase. Nature of the assay: Catalase activity in human skin explants after UVB (Clairborne-Aebi method). It counts as cell-based. Conditions: after UVB 2 J/cm2; 0.05 mM. The procedure:
Human skin explants obtained from a patient having undergone plastic surgery were cultured with or without teprenone or Trolox (positive control) for 48 hours then exposed to UV B radiation (2 J/cm^2). After irradiation, the explants were again cultured in fresh medium with or without teprenone or Trolox for 24 hours. Similars explants were also used in immunolabeling tests on heat shock proteins (HSP) and in the apoptosis study.
Catalase anti-oxidant activity was determined by the Clairborne-Aebi method. Hydrogen peroxide (H2O2) consumption is directly proportional to catalase activity. The consumption was determined by spectrophotometry at 240 nm

A further assay deals with Hsp70. The experiment in a line: Hsp70 immunolabeling in UVB-irradiated human skin explants. Format: cell-based. The conditions noted are these: 0.1 mM.
Description: as §2, §3, §4

Assay [2] is described as follows: Lipid peroxidation of liposomes using H2O2+FeCl2. Format: biochemical. The conditions noted are these: vs negative control. The method, then: as §1
In this method, liposomes are exposed to the test compound and a Fenton oxidative system. The peroxidation is determined by spectrophotometry. Trolox, a known anti-free radical agent, is used as the positive control at the same molar concentration as a teprenone.

The subject of assay [3] is sunburn cells (SBC) in human skin explants. Nature of the assay: Sunburn cells (SBC) in human skin explants after UVB. It counts as cell-based. Conditions: after UVB 2 J/cm^2. The procedure:
With a view to determining the action of teprenone as per the invention, the effect of the active substance on the presence of sunburn cells (SBC) and apoptotic cell in human skin explants was investigated.
Human skin explants are treated in a way similar to the preceding experiment of description of the protective role of the teprenone on the catalase activity (obtained from a patient having undergone plastic surgery, cultured with or without teprenone for 48 hours then exposed to UV B radiation (2 J/cm^2). After irradiation, the explants were again cultured in fresh medium with or without teprenone for 24 hours).
SBC were evidenced on paraffin-wax-embedded skin explant sections by staining with […]. SBC, apoptotic keratinocytes with pyknotic nuclei and eosinophilic cytoplasm, are characteristic of mammalian epidermis exposed to UV B radiation.

Take `Cc1c(C)c2c(c(C)c1O)CCC(C)(C(=O)O)O2` (centres unmarked) [Trolox, 6-hydroxy-2,5,7,8-tetramethylchroman-2-carboxylic acid]: the Variation of peroxydation in assay [1] (concentration 2.2 · 10^−2%) is −86%; in assay [1] (concentration 2.2 · 10^−3%), −88%; in assay [1] (concentration 2.2 · 10^−4%), −74%; in assay [1] (concentration 7.5 · 10^−3%), −88%; in assay [1] (concentration 7.5 · 10^−4%) it was −86%; in assay [2] (concentration 2.2 · 10^−2%), −88%. Besides, the Variation of peroxydation in assay [2] (concentration 2.2 · 10^−3%) was −87%; in assay [2] (concentration 2.2 · 10^−4%) it was −83%; in assay [2] (concentration 7.5 · 10^−3%), −87%; in assay [2] (concentration 7.5 · 10^−4%) it was −82%. Further, the “Hsp27: Protection vs. irradiated (%)” value with Hsp27 worked out at 75%. Further, in the assay with Hsp27 (UVB 2 J/cm2, n = 3), the “Number of Hsp27 positive cells/cm” value amounted to 380 cells/cm. In addition, the catalase activity in the assay with catalase is 90 UI/mg of protein. In addition, the “Hsp70: Protection vs. irradiated (%)” value with Hsp70 stood at 100%. Moreover, in the assay on Hsp70 (UVB 2 J/cm2, n = 3), the “Number of Hsp70 positive cells/cm” value is given as 40 cells/cm. The entries for the “% SBC (Sun Burn Cells)” value in assay [3] (0.05 mM) and in assay [3] (0.1 mM) were 45% and 30%, respectively.
